# Assay results published in PubChem BioAssay (NCI).
# “And” between values parts separate entries of the source, which are not always exact repeats. Equal values may be shown once.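 Briefly, cells in 96-well plates were exposed to five compound concentrations for 48 h, and endpoints were estimated by linear interpolation. GI50 = concentration required for 50% inhibition of growth. TGI: total growth inhibition.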
# Experiments:
# Assay in all cases: DTP human tumour cell line panel, 48 h
# MDA-N = tested on: MDA-N
# ACHN renal = tested on: ACHN renal
# UO-31 renal = tested on: UO-31 renal
# COLO 205 colon = tested on: COLO 205 colon
# A498 renal = tested on: A498 renal
# UACC-257 melanoma = tested on: UACC-257 melanoma
# OVCAR-4 ovarian = tested on: OVCAR-4 ovarian
# T-47D breast = tested on: T-47D breast
# OVCAR-3 ovarian = tested on: OVCAR-3 ovarian
# NCI-H522 lung = tested on: NCI-H522 lung
Structure (SMILES),TGI (MDA-N) [µM],TGI (ACHN renal) [µM],TGI (UO-31 renal) [µM],TGI (COLO 205 colon) [µM],TGI (A498 renal) [µM],TGI (UACC-257 melanoma) [µM],TGI (OVCAR-4 ovarian) [µM],GI50 (T-47D breast),TGI (T-47D breast),TGI (OVCAR-3 ovarian) [µM],TGI (NCI-H522 lung) [µM],GI50 (UO-31 renal) [µM],GI50 (OVCAR-4 ovarian) [µM],GI50 (NCI-H522 lung) [µM],GI50 (ACHN renal) [µM],GI50 (A498 renal) [µM],GI50 (UACC-257 melanoma) [µM],GI50 (OVCAR-3 ovarian) [µM],GI50 (COLO 205 colon) [µM]
CCOP(=O)(OCC)C(C)(CC)NC(=O)C(C(F)(F)F)C(F)(F)F (stereo unspecified),> 100,> 100,> 100,> 100,> 100,> 100,> 100,> 51.5 µM and 21.1 µM,> 100 µM and 99.7 µM,> 100,,,,,,,,,
NC(=O)CO/N=C1/C(c2c(O)[nH]c3ccccc23)=Nc2ccccc21,> 100,> 100,> 100,> 100,> 100,> 100,> 100,,,> 100,> 100,,,,,,,,
C#CCC1(C(=O)OCC)C(=O)c2ccccc2N(C)C1=O (stereo unspecified),,> 100,> 100,> 100,> 100,,,,,> 100,27.3,,,,,,,,
CCOC(=O)C1(C(F)(F)F)N=C(CC)OC(N2CCOCC2)=N1 (stereo unspecified),> 100,> 100,> 100,> 100,,> 100,> 100,,> 100 µM,> 100,> 100,,,,,,,,
COc1ccc(CCN2CCc3c(C)c(C#N)c4nc5ccccc5n4c32)cc1OC,43.1,> 100,> 100,89.8,> 100,> 100,> 100,,,> 100,57,,,,,,,,
O=[N+]([O-])c1cccnc1-n1cnc2ccccc21,,,,> 100,> 100,> 100,> 100,,> 100 µM,> 100,,,,,,,,,
COc1ccc2nc3n(c2c1)CCc1cc(OC)c(OC)cc1-3,> 100,> 100,,90.8,> 100,> 100,> 100,,> 100 µM,> 100,> 100,,,,,,,,
CC(C)(C)C1CC[C@H](O)[C@H]([C@H](O)CC2CC(=O)N(c3ccccc3)C(=O)C2)C1 (stereo partly specified),> 100,> 100,> 100,,> 100,> 100,> 100,,,> 100,> 100,,,,,,,,
CC(=O)Nc1cc(Nc2cc(=O)[nH]c(=O)[nH]2)ccc1C,> 100,> 100,> 100,> 100,> 100,> 100,> 100,,,> 100,,,,,,,,,
C=CC1CN2CCC1CC2C(O)c1ccnc2ccccc12 (stereo unspecified),,> 100,> 100,> 100,,> 100,> 100,,> 100 µM,> 100,,36.8,> 100,,,,,,
CCN(CC)c1ccc2cc(-c3nc4ccccc4c(=O)[nH]3)c(=N)oc2c1,> 100,> 100,> 100,> 100,,> 100,> 100,,> 100 µM,,> 100,,,,,,,,
CN(C)c1ccc(/C=C2\N=C(c3ccccc3)N(c3ccc4c(c3)Sc3cc(N5C(=O)/C(=C/c6ccc(N(C)C)cc6)N=C5c5ccccc5)ccc3N4)C2=O)cc1,> 100,30.4,34.8,> 100,31.8,38.2,61,,48 µM,25.8,,,,,,,,,
CCOC(=O)c1cn(C)c(=S)n2c1nc1ccccc12,,> 100,> 100,> 100,> 100,> 100,> 100,,> 100 µM,> 100,,,,,,,,,
NS(=O)(=O)c1ccc(NNc2c3ccccc3nc3c(C(=O)Nc4ccc(S(=O)(=O)Nc5ncccn5)cc4)cccc23)cc1,> 25,> 25,> 25,> 25,,> 25,> 25,,> 25 µM,> 25,> 25,,,,,,,,
CC1(C2CCC3(C)OC3C2)CO1 (stereo unspecified),,> 100,> 100,> 100,,> 100,> 100,,,> 100,> 100,,,,,,,,
Nc1ncnc2c1ncn2Cc1cccc(CCl)c1,,37.2,32.5,,30,30.4,47.3,,,32.3,32.5,,,,,,,,
CC(=O)O[C@H]1CC[C@@]2(C)[C@H](CC[C@@H]3[C@@H]2CC[C@]2(C)[C@@H](c4ccc(=O)oc4)C[C@H]4O[C@]342)C1,,,3.18,14.2,4.96,6.89,3.86,,,1.67,1.23,,,,,,,,
CO[C@]1(CN2CCN3CCCC[C@@H]3C2)/C=C/C[C@H](C)[C@@H](C)S(=O)(=O)NC(=O)c2ccc3c(c2)N(C[C@@H]2CC[C@H]21)C[C@@]1(CCCc2cc(Cl)ccc21)CO3,,3.9,2.93,,6.48,9.34,6.61,1.87 µM,5.11 µM,3.03,1.93,1.43,1.69,0.37,1.86,2.68,2.82,1.62,
CCOP(=O)(OCC)/C(C#N)=C/c1cccn1Cc1ccccc1,92.4,> 100,99.7,44.5,> 100,> 100,,,74 µM,> 100,86.8,,,,,,,,
O=C(Nc1cccc(-n2cc(-c3ccncc3)c(-c3ccc(O)c(Cl)c3)n2)c1)c1cccc(C(F)(F)F)c1,,> 100,> 100,72.9,> 100,> 100,> 100,3 µM,> 100 µM,,> 100,4.29,5.33,2.49,3.71,3.44,8.15,,13
C/C(=N\Nc1nc2ccccc2[nH]1)c1cc2ccccc2cn1,2.24,0.638,1.38,,0.665,5.67,2.41,,1.12 µM,0.911,1.13,,,,,,,,
CC(=O)CC(=O)CCC(=O)O,,> 100,> 100,> 100,,> 100,,,,,> 100,,,,,,,,
CCN(CC)c1nc(N(C)C)c2ccccc2n1,59.9,> 100,85.1,83.3,,> 100,> 100,,> 100 µM,,96.9,,,,,,,,
